Values quoted from earlier work, collected in article PMC9329312, “Decoding kinase-adverse event associations for small molecule kinase inhibitors” (Nature Communications, 2022).

Conditions: ref FAERS

## CCOc1cc2ncc(C#N)c(Nc3ccc(OCc4ccccn4)c(Cl)c3)c2cc1NC(=O)/C=C/CN(C)C [neratinib]
  Abdominal discomfort, % of Cases: 4.8%
  Abdominal distension, % of Cases: 3.4%
  Abdominal neoplasm, % of Cases: 0.075%
  Abdominal pain lower, % of Cases: 0.075%
  Abdominal pain upper, % of Cases: 6.0%
  Abdominal pain, % of Cases: 6.2%
  Abdominal tenderness, % of Cases: 0.15%
  Abnormal faeces, % of Cases: 0.15%
  Abscess, % of Cases: 0.15%
  Accidental overdose, % of Cases: 0.15%
  Acne, % of Cases: 1.5%
  Acute kidney injury, % of Cases: 0.6%
  Acute respiratory failure, % of Cases: 0.075%
  Adrenal mass, % of Cases: 0.075%
  Adrenocortical insufficiency acute, % of Cases: 0.075%
  Adverse drug reaction, % of Cases: 2.6%
  Adverse event, % of Cases: 0.075%
  Ageusia, % of Cases: 0.225%
  Alanine aminotransferase increased, % of Cases: 0.6%
  Alopecia, % of Cases: 0.5%
  Amenorrhoea, % of Cases: 0.075%
  Amnesia, % of Cases: 0.15%
  Anaemia, % of Cases: 0.6%
  Anal cancer metastatic, % of Cases: 0.075%
  Anal fissure, % of Cases: 0.075%
  Anal incontinence, % of Cases: 0.075%
  Anal inflammation, % of Cases: 0.075%
  Anger, % of Cases: 0.075%
  Animal bite, % of Cases: 0.075%
  Animal scratch, % of Cases: 0.075%
  Anxiety, % of Cases: 0.9%
  Aphasia, % of Cases: 0.075%
  Aphonia, % of Cases: 0.225%
  Aphthous ulcer, % of Cases: 0.075%
  Aplastic anaemia, % of Cases: 0.075%
  Appendicitis perforated, % of Cases: 0.075%
  Appendicitis, % of Cases: 0.15%
  Appetite disorder, % of Cases: 0.15%
  Arthralgia, % of Cases: 2.4%
  Arthritis, % of Cases: 0.375%
  Ascites, % of Cases: 0.225%
  Aspartate aminotransferase increased, % of Cases: 0.3%
  Aspergillus infection, % of Cases: 0.075%
  Asthenia, % of Cases: 4.1%
  Asthenopia, % of Cases: 0.075%
  Asthma, % of Cases: 0.15%
  Astigmatism, % of Cases: 0.075%
  Atrial fibrillation, % of Cases: 0.075%
  Back pain, % of Cases: 0.9%
  Bacterial infection, % of Cases: 0.075%
  Balance disorder, % of Cases: 0.225%
  Biliary cirrhosis, % of Cases: 0.075%
  Bladder dilatation, % of Cases: 0.075%
  Bladder spasm, % of Cases: 0.225%
  Blister, % of Cases: 0.15%
  Blood alkaline phosphatase increased, % of Cases: 0.15%
  Blood bilirubin increased, % of Cases: 0.15%
  Blood calcium decreased, % of Cases: 0.075%
  Blood creatinine abnormal, % of Cases: 0.075%
  Blood creatinine increased, % of Cases: 0.8%
  Blood electrolytes decreased, % of Cases: 0.15%
  Blood glucose decreased, % of Cases: 0.225%
  Blood glucose fluctuation, % of Cases: 0.075%
  Blood glucose increased, % of Cases: 0.075%
  Blood iron decreased, % of Cases: 0.225%
  Blood magnesium decreased, % of Cases: 0.3%
  Blood potassium decreased, % of Cases: 1.7%
  Blood pressure abnormal, % of Cases: 0.075%
  Blood pressure decreased, % of Cases: 0.225%
  Blood pressure increased, % of Cases: 0.6%
  Blood sodium decreased, % of Cases: 0.15%
  Blood urea increased, % of Cases: 0.3%
  Blood urea nitrogen/creatinine ratio increased, % of Cases: 0.075%
  Blood urine present, % of Cases: 0.15%
  Bone cancer, % of Cases: 0.075%
  Bone pain, % of Cases: 0.75%
  Bowel movement irregularity, % of Cases: 0.075%
  Brain cancer metastatic, % of Cases: 0.15%
  Brain natriuretic peptide increased, % of Cases: 0.075%
  Brain neoplasm malignant, % of Cases: 0.075%
  Brain neoplasm, % of Cases: 0.3%
  Brain oedema, % of Cases: 0.075%
  Brain operation, % of Cases: 0.15%
  Breast calcifications, % of Cases: 0.075%
  Breast cancer metastatic, % of Cases: 2.3%
  Breast cancer stage IV, % of Cases: 0.45%
  Breast cancer, % of Cases: 0.15%
  Breast cellulitis, % of Cases: 0.15%
  Breast disorder, % of Cases: 0.075%
  Breast haemorrhage, % of Cases: 0.075%
  Breast pain, % of Cases: 0.15%
  Breast reconstruction, % of Cases: 0.375%
  Breast swelling, % of Cases: 0.075%
  Brief resolved unexplained event, % of Cases: 0.075%
  Bronchitis, % of Cases: 0.075%
  Bundle branch block left, % of Cases: 0.075%
  Burning sensation, % of Cases: 0.3%
  COVID-19, % of Cases: 0.15%
  Cachexia, % of Cases: 0.075%
  Cancer pain, % of Cases: 0.075%
  Candida infection, % of Cases: 0.15%
  Carbohydrate antigen 15-3 increased, % of Cases: 0.075%
  Cardiac disorder, % of Cases: 0.075%
  Cardiac failure congestive, % of Cases: 0.225%
  Cardiac operation, % of Cases: 0.075%
  Cardio-respiratory arrest, % of Cases: 0.075%
  Catatonia, % of Cases: 0.075%
  Cellulitis staphylococcal, % of Cases: 0.075%
  Cellulitis, % of Cases: 0.15%
  Central nervous system haemorrhage, % of Cases: 0.075%
  Central venous catheter removal, % of Cases: 0.075%
  Central venous catheterisation, % of Cases: 0.075%
  Cerebral cyst, % of Cases: 0.075%
  Cerebrovascular accident, % of Cases: 0.3%
  Chapped lips, % of Cases: 0.075%
  Chest discomfort, % of Cases: 0.15%
  Chest pain, % of Cases: 0.6%
  Chest wall tumour, % of Cases: 0.075%
  Chills, % of Cases: 0.5%
  Cholangiocarcinoma, % of Cases: 0.075%
  Cholecystectomy, % of Cases: 0.075%
  Cholecystitis, % of Cases: 0.075%
  Cholelithiasis, % of Cases: 0.15%
  Chromaturia, % of Cases: 0.15%
  Chronic fatigue syndrome, % of Cases: 0.075%
  Chronic hepatic failure, % of Cases: 0.075%
  Clostridium difficile colitis, % of Cases: 0.075%
  Clostridium difficile infection, % of Cases: 0.225%
  Coagulopathy, % of Cases: 0.075%
  Cognitive disorder, % of Cases: 0.15%
  Colectomy, % of Cases: 0.075%
  Colitis ulcerative, % of Cases: 0.075%
  Colitis, % of Cases: 0.3%
  Colon cancer, % of Cases: 0.15%
  Coma, % of Cases: 0.075%
  Completed suicide, % of Cases: 0.075%
  Condition aggravated, % of Cases: 0.075%
  Confusional state, % of Cases: 0.8%
  Conjunctivitis, % of Cases: 0.075%
  Constipation, % of Cases: 15.5%
  Contusion, % of Cases: 0.225%
  Cough, % of Cases: 1.4%
  Critical illness, % of Cases: 0.075%
  Cyst, % of Cases: 0.075%
  Cystitis, % of Cases: 0.375%
  Deafness bilateral, % of Cases: 0.075%
  Death, % of Cases: 9.6%
  Decreased appetite, % of Cases: 11.9%
  Deep vein thrombosis, % of Cases: 0.075%
  Dehydration, % of Cases: 6.6%
  Dementia, % of Cases: 0.075%
  Dental operation, % of Cases: 0.075%
  Depressed mood, % of Cases: 0.3%
  Depression, % of Cases: 0.75%
  Dermatitis acneiform, % of Cases: 0.6%
  Dermatitis contact, % of Cases: 0.075%
  Device related infection, % of Cases: 0.225%
  Diabetic ketoacidosis, % of Cases: 0.075%
  Diarrhoea haemorrhagic, % of Cases: 0.225%
  Diarrhoea, % of Cases: 61.8%
  Diplegia, % of Cases: 0.075%
  Diplopia, % of Cases: 0.075%
  Discomfort, % of Cases: 0.075%
  Disease progression, % of Cases: 1.7%
  Disorientation, % of Cases: 0.075%
  Disturbance in attention, % of Cases: 0.075%
  Diverticulitis, % of Cases: 0.225%
  Dizziness, % of Cases: 4.6%
  Drug eruption, % of Cases: 0.075%
  Drug hypersensitivity, % of Cases: 0.075%
  Drug ineffective, % of Cases: 0.45%
  Drug interaction, % of Cases: 0.075%
  Drug intolerance, % of Cases: 1.0%
